Test results reported in patent publication US10653680B2, “Treatment of impulsivity-related disorders” (OXFORD UNIVERSITY INNOVATION LIMITED, priority 2016, dated 2020).

Columns and labels:
rats [1] = experiment: Rodent Gambling Task (rGT); format: in vivo, rats (males; Long Evans)
Procedure: (§1) Testing was carried out in Vancouver (Canada) using rats (males; Long Evans from Charles River) which were given at least two weeks to acclimatise to the animal facility. They were housed in pairs on a 12 hour reverse light-dark cycle (lights off at 7 am). In the second week of acclimatisation, rats were handled briefly each day. […] For each task, there was then a habituation session to the operant boxes before training began.
(§2) Ebselen, cocaine and 2,5-dimethoxy-4-iodoamphetamine (DOI) were obtained from Sigma Aldrich, and MDL 100,907 was obtained from Tocris. Ebselen was dissolved in 0.5M DMSO and made up to injection volume (8 ml/kg) using 4% cyclodextrin. Cocaine and DOI were dissolved in 0.9% saline. MDL 100,907 was dissolved in 0.9% saline and the pH was adjusted to 6.25 using 1M NaOH and 0.1M HCl.
(§3) All data for the cognitive tasks are presented as mean+SEM change from baseline: • performance on drug day−performance on the previous day
(§4) The data were analysed with repeated measures ANOVA with dose as a within-subject factor. Where appropriate, post-hoc analysis was performed using Student's paired t-test.
(§5) The Latin square design (for both the 5-CSRTT and rGT experiments) was counterbalanced, based on performance in the last training day of each task. A one week wash-out period was given between drug-administration days. A baseline session was performed both the day before and the day after treatment to ensure stable off-drug performance.
This was performed as described previously (Zeeb et al; Neuropsychopharmacology, 2009, 34(10), 2329-2343), and is illustrated schematically in FIG. 2. Twenty one rats were trained to respond in standard 5-CSRTT boxes. Once reliable responding was established, different reward contingencies were associated with four nose-poke apertures (the central aperture was not used in this task). In each case, the reward size and probability of outcome differed between the choices. When no reward was delivered, a fixed-length time-out was delivered. The length of this time-out was varied between choices, with the longest time-out being associated with the largest, least likely reward. […] On the other 20% of occasions, a 10 second time-out was initiated. Once stable performance was achieved, rats were administered ebselen (2, 5 and 10 mg/kg i.p.) or vehicle in a Latin square design.

healthy participants = experiment: Human study: subjective ratings (PANAS mood, side effect profile, LSEQ sleep, guess of treatment arm); format: in vivo
Excerpt: Twenty healthy participants (7 females, 13 males; mean age 25.1 years, range 20-38 years; mean BMI 22.7 kg/m^2, range 18.7-30.0 kg/m^2) were included in the study after giving full informed written consent.
Exclusion criteria included a history of any DSM-5 Axis I psychiatric disorder (determined using the […] for Diagnostic and Statistical Manual for Mental Health Disorders), significant current medical condition, current regular medication (apart from the contraceptive pill), pregnancy or lactation, heavy smoking (defined as more than 5 cigarettes per day) and having taken part in another study involving an investigational drug within the previous 3 months. Participants were asked to maintain stable exercise and diet as well as refrain from alcohol during study participation.
Ebselen capsules and identical matching placebo (containing microcrystalline cellulose) were purchased from Shasun Pharmaceuticals Ltd. Participants were tested twice (seven days apart) receiving on one occasion ebselen and, on the other, placebo in a randomised, double-blind, cross-over design. Ebselen was administered in 6×200 mg capsules in three doses given over two days. The order of receiving either the ebselen or the placebo was randomised.
On the day before cognitive testing, participants took the first dose at 1 pm and the second dose at 10 pm. The final dose was taken around 3 hrs prior to cognitive testing. Participants were sent text message reminders a few minutes before they were due to take medication, and were asked to confirm receipt of the messages. The cognitive tasks were carried out immediately after a magnetic resonance spectroscopy study.
On the screening visit, participants were assessed for baseline depression and anxiety symptoms with the Beck Depression Inventory (Beck et al.; Arch. Gen. Psychiatry; 1961, 4: 561-571) and the state measure of the State-Trait Anxiety Inventory (STAI) (Spielberger et al.; Manual for the State-Trait Anxiety Inventory, Consulting Psychologists Press, Palo Alto Calif., 1983), and for personality with the Eysenck Personality Questionnaire (Eysenck and Eysenck, Manual of the Eysenck Personality Questionnaire, London: Hodder & Stoughton, 1975). On the morning preceding psychological testing, the Leeds Sleep Evaluation Questionnaire (LSEQ) was completed within 30 minutes of waking (Parrot and Hindmarch, Psychopharmacology, 1980, 71, 173-179).
Before cognitive testing, participants were asked to rate their mood using the Positive and Negative Affective Schedule (PANAS) (Watson et al.; J. Pers. Soc. Psychol., 1988, 54, 1063-1070), to complete a side effect profile using a 4-point rating scale and also to guess as to whether they had received ebselen or placebo on that randomization arm. […]

[2] = WO 2012/107735; cited from earlier work
rats [3] = experiment: 5 Choice Serial Reaction Time Task (5-CSRTT); format: in vivo, rats (males; Long Evans)
Procedure: as §1, §2, §3, §4
This test was performed as described previously (Bari et al., Nature Protocols, 2008, 3(5), 759-767; Robbins, Psychopharmacology, 2002, 163(3), 362-380).
Fourteen rats were trained to respond to brief visual cues presented in one of five target areas with an inter-trial interval of 5 seconds. On the day of testing in the presence of ebselen, the inter-trial interval was lengthened to 7 seconds to cause a reliable increase in premature responding.
Ebselen and vehicle were administered by intraperitoneal (i.p.) injection 1 hour prior to testing. Three doses of ebselen (2, 5 or 10 mg/kg) were studied, administration being in a random order that was determined by a Latin square design. Rats were run five days a week, with the treatment day falling on day three.
Following ebselen, 3 doses of MDL 100,907 (0.01, 0.03 and 0.1 mg/kg, i.p.) were tested in a Latin square design with the first injection occurring one week after the final injection of ebselen. MDL 100,907 is a selective 5-HT2A antagonist. Rats were similarly run five days a week with injections falling on the third day, and the lengthened inter-trial interval was used only on the drug-administration day.
as §5

Compound: O=c1c2ccccc2[se]n1-c1ccccc1 [Ebselen, 2-phenyl-1,2-benzisoselenazol-3(2H)-one]
- premature responses (rats [1]; ebselen 2 mg/kg i.p. vs vehicle, p=0.052): decreased premature responses
- response latency (increase in time to respond) (rats [1]; ebselen 2 mg/kg, paired t-test, p=0.056): trend
- reward latency (time taken to collect rewards) (rats [1]; ebselen 2 mg/kg, p=0.024): significant increase
- premature responses (rats [1]; ebselen 5 mg/kg i.p. vs vehicle, p=0.077): decreased trend
- response latency (increase in time to respond) (rats [1]; ebselen 5 mg/kg, paired t-test, p=0.028): significant
- reward latency (rats [1]; ebselen 5 mg/kg, p=0.069): trend increase
- premature responses (rats [1]; ebselen 10 mg/kg i.p. vs vehicle, p=0.028): decreased premature responses
- response latency (rats [1]; ebselen 10 mg/kg, paired t-test, p=0.246): no significant effect
- reward latency (time taken to collect rewards) (rats [1]; ebselen 10 mg/kg, p=0.005): significant increase
- reward latency (rats [1]; ebselen 2, 5, 10 mg/kg i.p., overall ANOVA, p=0.062): no effect
- response latency (rats [1]; ebselen 2, 5, 10 mg/kg i.p., overall ANOVA, p=0.090): no effect
- number of trials completed during the sessions (rats [1]; ebselen 2, 5, 10 mg/kg i.p., p=0.546): no effect
- choice behaviour (rats [1]; ebselen 2, 5, 10 mg/kg i.p., p=0.596): no effect
- premature responses (rats [1]; ebselen 2, 5 and 10 mg/kg i.p. overall, p=0.088): overall trend to decreased premature responses
- tolerability (healthy participants; 20 healthy participants, 6x200 mg in three doses over two days, no participants dropped out): well tolerated
- frequency of other side effects (healthy participants; ebselen and placebo treatment compared): low and comparable frequency of side effects
- subjective measures of sleep (LSEQ) (healthy participants; ebselen vs placebo): no significant differences
- participants who reported feeling drowsy (healthy participants; of 20 participants on ebselen treatment, none on placebo): Five
- transfer across the blood/brain barrier [2]: capable of transferring across the blood/brain barrier
- premature responding (rats [3]; ebselen 2 mg/kg i.p. vs vehicle, p=0.158): No effect
- premature responding (rats [3]; ebselen 5 mg/kg i.p. vs vehicle, p=0.011): statistically significant decreases
- premature responding (rats [3]; ebselen 10 mg/kg i.p. vs vehicle, p=0.032): statistically significant decreases
- premature responding (rats [3]; ebselen 2, 5, 10 mg/kg i.p. 1 hour prior to testing, vs vehicle, ANOVA p=0.049, inter-trial interval 7 s): decreased premature responding in a dose-dependent manner
- any other measures of the 5-CSRTT (rats [3]; ebselen 2, 5, 10 mg/kg i.p., p=0.192-0.805): No effects
